Results: ChEMBL document CHEMBL4038295, “Calofolic acids A-F, chromanones from the bark of Calophyllum scriblitifolium with vasorelaxation activity” (Bioorg Med Chem Lett, 2017)
pIC50: −log10 of the molar value.

Test system: Thoracic aorta
Assay: Vasorelaxing effect in endothelium-intact Wistar rat thoracic aorta ring assessed as inhibition of phenylephrine-stimulated contraction
Assay type: functional, tissue-based

Compound	pIC50	inhibition
CCC[C@H](CC(=O)O)c1c2c(c(O)c3c1O[C@H](C)[C@H](C)C3=O)C=CC(C)(C)O2	4.72	Dose-dependent effect
C[C@H](CC(=O)O)c1c2c(c(O)c3c1O[C@H](C)[C@H](C)C3=O)C=CC(C)(C)O2	4.99	Dose-dependent effect
CCCC[C@H](CC(=O)O)c1c2c(c(O)c3c1O[C@H](C)[C@H](C)C3=O)C=CC(C)(C)O2	4.92	Dose-dependent effect

Now from value to compound, other results behind:

pIC50	Compound	inhibition
4.98	CC[C@H](CC(=O)O)c1c2c(c(O)c3c1O[C@H](C)[C@@H](C)C3=O)C=CC(C)(C)O2	Dose-dependent effect
4.86	CCC[C@H](CC(=O)O)c1c2c(c(O)c3c1O[C@H](C)[C@@H](C)C3=O)C=CC(C)(C)O2	Dose-dependent effect
5.22	CC[C@H](CC(=O)O)c1c2c(c(O)c3c1O[C@H](C)[C@H](C)C3=O)C=CC(C)(C)O2	Dose-dependent effect
